From the kinase profiling compilation of Christmann-Franck et al. (2016)

Key:
Experiment in all cases: radiometric filter-binding kinase assay, Kinase HotSpot
Details in all cases: compound 0.5 µM; ATP 10 µM
PDPK1 (human) = PDPK1 (human) (UniProt O15530)
CAMK2A (human) = CAMK2A (human) (UniProt Q9UQM7)
EPHA3 (human) = EPHA3 (human) (UniProt P29320)
NTRK2 (human) = NTRK2 (human) (UniProt Q16620)
ULK1 (human) = ULK1 (human) (UniProt O75385)
LTK (human) = LTK (human) (UniProt P29376)
MAPKAPK5 (human) = MAPKAPK5 (human) (UniProt Q8IW41)
CAMK1 (human) = CAMK1 (human) (UniProt Q14012)
ADRBK2 (human) = ADRBK2 (human) (UniProt P35626)
MYLK (human) = MYLK (human) (UniProt Q15746)
EPHA4 (human) = EPHA4 (human) (UniProt P54764)
CAMK1D (human) = CAMK1D (human) (UniProt Q8IU85)
EPHB2 (human) = EPHB2 (human) (UniProt P29323)
FRK (human) = FRK (human) (UniProt P42685)
MAP4K2 (human) = MAP4K2 (human) (UniProt Q12851)
MAPK14 (human) = MAPK14 (human) (UniProt Q16539)
MAPK11 (human) = MAPK11 (human) (UniProt Q15759)
STK24 (human) = STK24 (human) (UniProt Q9Y6E0)
FGFR2 (human) = FGFR2 (human) (UniProt P21802)
SLK (human) = SLK (human) (UniProt Q9H2G2)
IGF1R (human) = IGF1R (human) (UniProt P08069)
CSNK1D (human) = CSNK1D (human) (UniProt P48730)
HIPK1 (human) = HIPK1 (human) (UniProt Q86Z02)
SGK3 (human) = SGK3 (human) (UniProt Q96BR1)
CSNK1G1 (human) = CSNK1G1 (human) (UniProt Q9HCP0)
[1] = biological target: TYK2 JH1 catalytic (human) (UniProt P29597)
TGFBR1 (human) = TGFBR1 (human) (UniProt P36897)
MAP3K2 (human) = MAP3K2 (human) (UniProt Q9Y2U5)
STK3 (human) = STK3 (human) (UniProt Q13188)
CDK2 CCNA2 (human) = CDK2 CCNA2 (human) (UniProt P24941+P20248)
CDC42BPA (human) = CDC42BPA (human) (UniProt Q5VT25)
Sequence of CDC42BPA (human) (Q5VT25 whole entry, looked up): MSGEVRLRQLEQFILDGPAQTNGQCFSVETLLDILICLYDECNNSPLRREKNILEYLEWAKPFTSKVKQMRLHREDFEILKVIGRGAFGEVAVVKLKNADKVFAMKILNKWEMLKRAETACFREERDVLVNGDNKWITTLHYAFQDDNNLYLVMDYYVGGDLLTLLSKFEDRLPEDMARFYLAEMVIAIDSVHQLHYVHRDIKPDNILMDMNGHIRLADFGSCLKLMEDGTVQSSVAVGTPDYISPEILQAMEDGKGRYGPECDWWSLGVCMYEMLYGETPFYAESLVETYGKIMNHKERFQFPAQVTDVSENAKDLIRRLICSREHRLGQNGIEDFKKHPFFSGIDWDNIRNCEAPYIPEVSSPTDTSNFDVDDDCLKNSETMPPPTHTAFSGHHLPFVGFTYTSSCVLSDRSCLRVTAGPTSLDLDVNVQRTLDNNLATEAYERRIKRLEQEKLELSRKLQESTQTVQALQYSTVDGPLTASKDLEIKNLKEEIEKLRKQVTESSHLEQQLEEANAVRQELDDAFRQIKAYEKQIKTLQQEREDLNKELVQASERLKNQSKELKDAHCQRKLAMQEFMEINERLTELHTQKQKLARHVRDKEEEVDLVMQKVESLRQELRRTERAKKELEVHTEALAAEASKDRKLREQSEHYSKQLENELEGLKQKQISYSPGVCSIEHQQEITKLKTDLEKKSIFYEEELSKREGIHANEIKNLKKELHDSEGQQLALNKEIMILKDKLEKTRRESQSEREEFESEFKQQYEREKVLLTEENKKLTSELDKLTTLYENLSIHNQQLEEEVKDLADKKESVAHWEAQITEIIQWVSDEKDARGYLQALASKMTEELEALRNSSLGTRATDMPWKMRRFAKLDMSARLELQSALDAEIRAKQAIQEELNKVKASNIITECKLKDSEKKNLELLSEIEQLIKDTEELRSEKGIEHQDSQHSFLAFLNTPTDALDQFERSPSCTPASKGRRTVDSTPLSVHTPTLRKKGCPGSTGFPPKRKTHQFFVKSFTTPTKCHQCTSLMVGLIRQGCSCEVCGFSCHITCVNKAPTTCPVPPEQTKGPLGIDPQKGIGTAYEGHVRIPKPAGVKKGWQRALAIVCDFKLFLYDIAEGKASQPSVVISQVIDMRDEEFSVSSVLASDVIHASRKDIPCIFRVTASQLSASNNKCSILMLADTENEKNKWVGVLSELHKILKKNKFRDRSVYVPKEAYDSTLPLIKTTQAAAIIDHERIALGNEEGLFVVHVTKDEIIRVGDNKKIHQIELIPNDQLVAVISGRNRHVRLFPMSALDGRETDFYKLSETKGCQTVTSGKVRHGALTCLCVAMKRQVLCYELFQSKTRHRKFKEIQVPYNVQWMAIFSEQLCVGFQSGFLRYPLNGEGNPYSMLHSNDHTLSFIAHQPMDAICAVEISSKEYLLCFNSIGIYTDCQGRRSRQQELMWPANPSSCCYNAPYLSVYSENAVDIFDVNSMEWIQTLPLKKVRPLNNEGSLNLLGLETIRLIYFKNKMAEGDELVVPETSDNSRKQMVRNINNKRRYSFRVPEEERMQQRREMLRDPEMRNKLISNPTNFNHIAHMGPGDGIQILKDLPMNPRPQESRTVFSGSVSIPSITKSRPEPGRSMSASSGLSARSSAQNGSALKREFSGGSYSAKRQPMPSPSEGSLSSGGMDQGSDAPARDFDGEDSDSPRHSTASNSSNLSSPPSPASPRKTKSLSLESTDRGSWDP

FER (human) = FER (human) (UniProt P16591)
EPHA7 (human) = EPHA7 (human) (UniProt Q15375)
PNCK (human) = PNCK (human) (UniProt Q6P2M8)
MAPK12 (human) = MAPK12 (human) (UniProt P53778)
TAOK2 (human) = TAOK2 (human) (UniProt Q9UL54)
HIPK4 (human) = HIPK4 (human) (UniProt Q8NE63)
CSNK1G3 (human) = CSNK1G3 (human) (UniProt Q9Y6M4)
CDK1 CCNB1 (human) = CDK1 CCNB1 (human) (UniProt P06493+P14635)
ERBB4 (human) = ERBB4 (human) (UniProt Q15303)
Sequence of ERBB4 (human) (Q15303 whole entry, looked up): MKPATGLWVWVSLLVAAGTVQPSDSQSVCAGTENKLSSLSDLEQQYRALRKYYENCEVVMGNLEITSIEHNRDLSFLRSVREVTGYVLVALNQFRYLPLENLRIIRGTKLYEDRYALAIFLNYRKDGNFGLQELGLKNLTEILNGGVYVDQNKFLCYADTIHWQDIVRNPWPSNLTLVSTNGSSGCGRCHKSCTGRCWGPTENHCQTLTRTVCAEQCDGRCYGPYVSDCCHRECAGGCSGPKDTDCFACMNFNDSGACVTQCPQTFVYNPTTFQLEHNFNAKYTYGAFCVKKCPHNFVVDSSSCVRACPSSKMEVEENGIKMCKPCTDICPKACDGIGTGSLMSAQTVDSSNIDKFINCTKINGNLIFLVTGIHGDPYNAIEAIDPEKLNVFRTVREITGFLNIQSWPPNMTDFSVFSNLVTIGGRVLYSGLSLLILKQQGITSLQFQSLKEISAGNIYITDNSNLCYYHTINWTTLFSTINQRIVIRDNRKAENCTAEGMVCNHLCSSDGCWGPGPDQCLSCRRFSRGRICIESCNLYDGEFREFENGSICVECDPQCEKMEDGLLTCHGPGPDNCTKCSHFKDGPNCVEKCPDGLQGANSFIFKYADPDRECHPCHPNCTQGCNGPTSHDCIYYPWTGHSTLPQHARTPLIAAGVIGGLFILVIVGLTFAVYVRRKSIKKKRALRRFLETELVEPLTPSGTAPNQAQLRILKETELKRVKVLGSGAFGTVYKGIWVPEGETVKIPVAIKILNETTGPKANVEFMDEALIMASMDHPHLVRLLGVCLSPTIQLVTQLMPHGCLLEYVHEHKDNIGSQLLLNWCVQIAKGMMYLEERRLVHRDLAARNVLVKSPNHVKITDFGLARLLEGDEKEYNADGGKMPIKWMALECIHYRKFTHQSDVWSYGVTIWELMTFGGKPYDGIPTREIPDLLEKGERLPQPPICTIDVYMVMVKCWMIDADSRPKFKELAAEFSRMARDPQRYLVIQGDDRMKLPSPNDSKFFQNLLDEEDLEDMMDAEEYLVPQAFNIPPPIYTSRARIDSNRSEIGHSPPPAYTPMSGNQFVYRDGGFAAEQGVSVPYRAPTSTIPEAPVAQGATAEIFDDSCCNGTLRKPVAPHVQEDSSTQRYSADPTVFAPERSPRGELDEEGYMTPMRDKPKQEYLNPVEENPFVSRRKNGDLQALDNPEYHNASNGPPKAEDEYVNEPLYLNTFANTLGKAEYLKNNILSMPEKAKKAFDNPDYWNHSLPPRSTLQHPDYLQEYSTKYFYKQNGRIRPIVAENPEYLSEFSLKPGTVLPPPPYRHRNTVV

CAMK2B (human) = CAMK2B (human) (UniProt Q13554)
RIPK2 (human) = RIPK2 (human) (UniProt O43353)
Sequence of RIPK2 (human) (O43353 whole entry, looked up): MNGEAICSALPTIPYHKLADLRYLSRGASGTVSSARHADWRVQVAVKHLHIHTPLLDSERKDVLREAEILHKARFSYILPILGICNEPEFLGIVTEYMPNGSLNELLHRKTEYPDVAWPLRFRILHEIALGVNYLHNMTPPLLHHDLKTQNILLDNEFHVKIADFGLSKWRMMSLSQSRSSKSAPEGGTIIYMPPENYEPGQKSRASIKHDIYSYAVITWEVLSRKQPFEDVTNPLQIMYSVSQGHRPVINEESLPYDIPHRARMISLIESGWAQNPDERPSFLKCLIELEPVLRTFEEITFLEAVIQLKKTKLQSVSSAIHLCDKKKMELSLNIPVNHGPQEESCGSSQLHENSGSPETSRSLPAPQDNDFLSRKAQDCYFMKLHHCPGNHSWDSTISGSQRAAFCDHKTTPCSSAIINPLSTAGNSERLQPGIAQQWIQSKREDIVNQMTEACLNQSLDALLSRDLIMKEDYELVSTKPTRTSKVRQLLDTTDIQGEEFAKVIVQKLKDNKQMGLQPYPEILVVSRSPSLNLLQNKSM

Sequence of NTRK2 (human) (Q16620 whole entry, looked up): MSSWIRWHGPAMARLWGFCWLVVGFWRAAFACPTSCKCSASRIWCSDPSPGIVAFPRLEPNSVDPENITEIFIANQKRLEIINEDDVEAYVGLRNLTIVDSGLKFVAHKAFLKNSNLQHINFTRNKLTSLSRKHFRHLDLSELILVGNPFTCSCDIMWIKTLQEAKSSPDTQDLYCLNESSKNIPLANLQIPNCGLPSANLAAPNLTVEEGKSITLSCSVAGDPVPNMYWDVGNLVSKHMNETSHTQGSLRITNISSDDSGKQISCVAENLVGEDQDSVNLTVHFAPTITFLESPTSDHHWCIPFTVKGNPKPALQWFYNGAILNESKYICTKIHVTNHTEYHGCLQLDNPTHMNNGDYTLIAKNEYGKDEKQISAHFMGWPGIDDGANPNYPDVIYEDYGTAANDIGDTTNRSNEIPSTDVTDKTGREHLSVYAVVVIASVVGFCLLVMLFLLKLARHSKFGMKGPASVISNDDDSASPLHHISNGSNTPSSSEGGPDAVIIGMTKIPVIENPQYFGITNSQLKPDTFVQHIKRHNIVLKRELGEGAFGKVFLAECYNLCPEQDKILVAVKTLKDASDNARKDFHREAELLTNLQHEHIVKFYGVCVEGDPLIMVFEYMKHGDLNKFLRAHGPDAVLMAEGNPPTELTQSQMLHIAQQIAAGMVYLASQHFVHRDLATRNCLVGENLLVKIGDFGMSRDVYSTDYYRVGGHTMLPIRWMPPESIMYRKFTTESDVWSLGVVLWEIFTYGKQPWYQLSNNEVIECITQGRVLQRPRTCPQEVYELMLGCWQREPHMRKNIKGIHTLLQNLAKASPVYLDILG
Sequence of CAMK2A (human) (Q9UQM7 whole entry, looked up): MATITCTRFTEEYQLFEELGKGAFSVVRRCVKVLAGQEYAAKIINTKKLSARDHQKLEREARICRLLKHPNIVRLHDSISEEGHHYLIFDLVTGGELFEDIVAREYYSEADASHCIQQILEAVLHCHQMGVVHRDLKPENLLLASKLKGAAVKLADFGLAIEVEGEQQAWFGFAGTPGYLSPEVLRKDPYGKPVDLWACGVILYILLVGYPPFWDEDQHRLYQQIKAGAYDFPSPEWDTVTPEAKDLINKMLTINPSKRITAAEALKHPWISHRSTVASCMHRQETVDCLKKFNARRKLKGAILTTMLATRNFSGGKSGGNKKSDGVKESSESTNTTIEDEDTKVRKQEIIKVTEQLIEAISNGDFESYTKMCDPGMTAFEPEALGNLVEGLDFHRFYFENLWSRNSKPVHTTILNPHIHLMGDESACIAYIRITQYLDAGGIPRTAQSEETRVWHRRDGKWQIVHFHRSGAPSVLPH

In the case of Nc1n[nH]c2nnc(-c3c(-c4ccccc4)nn4ccccc34)cc12, the residual activity (PDPK1 (human)) is reported as 104%, the residual activity (CAMK2A (human)) is reported as 102% and the residual activity (EPHA3 (human)) is reported as 97.8%. For the same compound, the residual activity (NTRK2 (human)) was 89.7%, the residual activity (ULK1 (human)) was 97.1% and the residual activity (LTK (human)) was 90.5%. It also gave a residual activity (MAPKAPK5 (human)) of 97.7%, a residual activity (CAMK1 (human)) of 102% and a residual activity (ADRBK2 (human)) of 101%. The residual activity (MYLK (human)) was 98.3%, the residual activity (EPHA4 (human)) was 85.9% and the residual activity (CAMK1D (human)) was 95.9%. It also gave a residual activity (EPHB2 (human)) of 93.1%, a residual activity (FRK (human)) of 101% and a residual activity (MAP4K2 (human)) of 98.6%. The residual activity (MAPK14 (human)) was 94.6%, the residual activity (MAPK11 (human)) was 90% and the residual activity (STK24 (human)) was 74.6%. The residual activity (FGFR2 (human)) was 102%, the residual activity (SLK (human)) was 94% and the residual activity (IGF1R (human)) was 102%. It also gave a residual activity (CSNK1D (human)) of 63.2%, a residual activity (HIPK1 (human)) of 99.7% and a residual activity (SGK3 (human)) of 90.2%. The residual activity (CSNK1G1 (human)) was 109%, the residual activity [1] was 104% and the residual activity (TGFBR1 (human)) was 96.1%. For the same compound, the residual activity (MAP3K2 (human)) was 97.8%, the residual activity (STK3 (human)) was 102% and the residual activity (CDK2 CCNA2 (human)) was 92.9%. It also gave a residual activity (CDC42BPA (human)) of 89.7%, a residual activity (FER (human)) of 90.8% and a residual activity (EPHA7 (human)) of 99.5%. For the same compound, the residual activity (PNCK (human)) was 99.6%, the residual activity (MAPK12 (human)) was 104% and the residual activity (TAOK2 (human)) was 101%. For the same compound, the residual activity (HIPK4 (human)) was 105%, the residual activity (CSNK1G3 (human)) was 104% and the residual activity (CDK1 CCNB1 (human)) was 90.2%. It also gave a residual activity (ERBB4 (human)) of 91.4%, a residual activity (CAMK2B (human)) of 102% and a residual activity (RIPK2 (human)) of 87%.

CC(C)n1cnc2c(Nc3cccc(Cl)c3)nc(NCCO)nc21 gave a residual activity (PDPK1 (human)) of 96.8%, a residual activity (CAMK2A (human)) of 99.1% and a residual activity (EPHA3 (human)) of 90.3%. For the same compound, the residual activity (NTRK2 (human)) was 66.1%, the residual activity (ULK1 (human)) was 77.6% and the residual activity (LTK (human)) was 85.3%. The residual activity (MAPKAPK5 (human)) was 68.6%, the residual activity (CAMK1 (human)) was 71.2% and the residual activity (ADRBK2 (human)) was 90.5%. It also gave a residual activity (MYLK (human)) of 87.8%, a residual activity (EPHA4 (human)) of 87.5% and a residual activity (CAMK1D (human)) of 98.1%. It also gave a residual activity (EPHB2 (human)) of 89.8%, a residual activity (FRK (human)) of 94.2% and a residual activity (MAP4K2 (human)) of 87.6%. For the same compound, the residual activity (MAPK14 (human)) was 90.7%, the residual activity (MAPK11 (human)) was 92.2% and the residual activity (STK24 (human)) was 87.7%. For the same compound, the residual activity (FGFR2 (human)) was 94.5%, the residual activity (SLK (human)) was 84.8% and the residual activity (IGF1R (human)) was 90%. It also gave a residual activity (CSNK1D (human)) of 48.5%, a residual activity (HIPK1 (human)) of 99.8% and a residual activity (SGK3 (human)) of 97.1%. It also gave a residual activity (CSNK1G1 (human)) of 16%, a residual activity [1] of 105% and a residual activity (TGFBR1 (human)) of 97.7%. For the same compound, the residual activity (MAP3K2 (human)) was 97.6%, the residual activity (STK3 (human)) was 94.6% and the residual activity (CDK2 CCNA2 (human)) was 42%. The residual activity (CDC42BPA (human)) was 83.9%, the residual activity (FER (human)) was 79.5% and the residual activity (EPHA7 (human)) was 87.1%. The residual activity (PNCK (human)) was 100%, the residual activity (MAPK12 (human)) was 102% and the residual activity (TAOK2 (human)) was 97.2%. The residual activity (HIPK4 (human)) was 94.6%, the residual activity (CSNK1G3 (human)) was 6.89% and the residual activity (CDK1 CCNB1 (human)) was 46.6%. The residual activity (ERBB4 (human)) was 101%, the residual activity (CAMK2B (human)) was 95.9% and the residual activity (RIPK2 (human)) was 84.3%.
